In the supplement of paper PMC13380429:

Columns and labels:
Conditions in all cases: 72 h
HepG2 [1] = assay: relative viability EC50 (midpoint between 100% and the lowest measured viability); higher = less toxic
Vero E6 [2] = assay: as above
Calu-3 [3] = assay: drug sensitivity score (DSS) for viability; higher = more toxic; extreme values may be limits of the assay
HepG2 [4] = assay: as above
Vero E6 [5] = assay: as above
U2OS [6] = assay: as above
Caco-2 [7] = assay: as above
Calu-3 [8] = assay: cell viability relative to DMSO; higher = less toxic
HepG2 [9] = assay: as above
Vero E6 [10] = assay: as above
U2OS [11] = assay: as above
Caco-2 [12] = assay: as above
Calu-3 [13] = assay: relative viability EC50 (midpoint between 100% and the lowest measured viability); higher = less toxic
Caco-2 [14] = assay: as above

| SMILES | relative viability EC50 (HepG2 [1]) [µM] | relative viability EC50 (Vero E6 [2]) [µM] | drug sensitivity score (Calu-3 [3]) | drug sensitivity score (HepG2 [4]) | drug sensitivity score (Vero E6 [5]) | drug sensitivity score (U2OS [6]) | drug sensitivity score (Caco-2 [7]) | cell viability (Calu-3 [8]; 1 nM) [%] | cell viability (Calu-3 [8]; 10 nM) [%] | cell viability (Calu-3 [8]; 100 nM) [%] | cell viability (Calu-3 [8]; 1000 nM) [%] | cell viability (Calu-3 [8]; 10000 nM) [%] | cell viability (HepG2 [9]; 1 nM) [%] | cell viability (HepG2 [9]; 10 nM) [%] | cell viability (HepG2 [9]; 100 nM) [%] | cell viability (HepG2 [9]; 1000 nM) [%] | cell viability (HepG2 [9]; 10000 nM) [%] | cell viability (Vero E6 [10]; 1 nM) [%] | cell viability (Vero E6 [10]; 10 nM) [%] | cell viability (Vero E6 [10]; 100 nM) [%] | cell viability (Vero E6 [10]; 1000 nM) [%] | cell viability (Vero E6 [10]; 10000 nM) [%] | cell viability (U2OS [11]; 1 nM) [%] | cell viability (U2OS [11]; 10 nM) [%] | cell viability (U2OS [11]; 100 nM) [%] | cell viability (U2OS [11]; 1000 nM) [%] | cell viability (U2OS [11]; 10000 nM) [%] | cell viability (Caco-2 [12]; 1 nM) [%] | cell viability (Caco-2 [12]; 10 nM) [%] | cell viability (Caco-2 [12]; 100 nM) [%] | cell viability (Caco-2 [12]; 1000 nM) [%] | cell viability (Caco-2 [12]; 10000 nM) [%] | relative viability EC50 (Calu-3 [13]) [µM] | relative viability EC50 (Caco-2 [14]) [µM] |
| --- | --- | --- | --- | --- | --- | --- | --- | --- | --- | --- | --- | --- | --- | --- | --- | --- | --- | --- | --- | --- | --- | --- | --- | --- | --- | --- | --- | --- | --- | --- | --- | --- | --- | --- |
| Cn1cnc(-c2cc3nccc(Oc4ccc(NC(=S)NC(=O)Cc5ccccc5)cc4F)c3s2)c1 [MGCD-265] | > 10 | > 10 | 3.7 | 0.8 | 0.6 | 2 | 3.5 | 96.6 | 93.1 | 100 | 86.9 | 62.3 | 103 | 92.7 | 97.6 | 97.9 | 80.6 | 106 | 106 | 103 | 104 | 77.3 | 102 | 95.9 | 103 | 96.5 | 67.3 | 97 | 99.8 | 98.3 | 84 | 63.6 | – | – |
| CC(=O)NS(=O)(=O)c1ccc(N)cc1 [sulfacetamide] | – | – | 0 | 0 | 0 | – | – | – | – | – | – | – | – | – | – | – | – | – | – | – | – | – | – | – | – | – | – | – | – | – | – | – | – | – |
| Cc1cccc(C)c1NC1=NCCCS1 [xylazine] | – | > 10 | 0 | – | 0 | – | 0 | 94.4 | 102 | 92.1 | 114 | 90.2 | – | – | – | – | – | 113 | 105 | 106 | 102 | 98.5 | – | – | – | – | – | 105 | 101 | 98.7 | 104 | 92.1 | > 10 | > 10 |
| COc1cc2c(cc1OC)C(=O)C(CC1CCN(Cc3ccccc3)CC1)C2 (configuration not stated) [donepezil] | > 10 | > 10 | 0 | 0 | 0.3 | – | 0 | 91.9 | 92.4 | 96 | 92 | 94.1 | 114 | 106 | 98.8 | 102 | 91.2 | – | – | – | – | – | – | – | – | – | – | 103 | 102 | 104 | 91.4 | 96.4 | > 10 | > 10 |
| CCn1cc(C(=O)O)c(=O)c2cc(F)c(N3CCNCC3)nc21 [enoxacin] | > 10 | > 10 | 0 | 0 | 0 | – | 0 | 97.7 | 103 | 106 | 105 | 107 | 105 | 105 | 99.8 | 96 | 97.6 | 101 | 110 | 103 | 103 | 97.6 | – | – | – | – | – | 105 | 105 | 103 | 99.2 | 99.6 | > 10 | > 10 |
| CC(=O)[C@@]1(O)CC[C@H]2[C@@H]3C=C(Cl)C4=CC(=O)[C@@H]5C[C@@H]5[C@]4(C)[C@H]3CC[C@@]21C [CYPROTERONE] | – | > 10 | 0 | – | 0 | – | 0 | 99.5 | 101 | 103 | 86.6 | 97.4 | – | – | – | – | – | 101 | 107 | 99.5 | 104 | 94.9 | – | – | – | – | – | 106 | 89.5 | 112 | 102 | 95 | > 10 | > 10 |
| CCCN1CC(NS(=O)(=O)N(CC)CC)CC2Cc3c(O)cccc3CC21 (configuration not stated) [quinagolide] | – | – | 0.3 | – | – | – | 0 | 85.9 | 110 | 95.8 | 97.5 | 86.1 | – | – | – | – | – | – | – | – | – | – | – | – | – | – | – | 107 | 104 | 106 | 98.9 | 96.3 | > 10 | > 10 |
| C=CC(=O)Nc1ccc2ncnc(Nc3cccc(Br)c3)c2c1 | – | 0.287 | 21 | 2.7 | 13.6 | 3 | 6.7 | 96 | 79.1 | 46.5 | 32.9 | 35.4 | 100 | 98.7 | 95.2 | 93.6 | 65 | 96.8 | 89.6 | 71 | 50.7 | 19.7 | 96.8 | 107 | 93 | 87.9 | 62.8 | 83.2 | 86.7 | 92 | 71 | 70.6 | 0.0229 | – |
| Oc1cccc(-c2nc(N3CCOCC3)c3oc4ncccc4c3n2)c1 [PI-103] | – | – | 5.1 | 5.3 | 11 | 5.6 | 13.1 | 105 | 95.1 | 81.9 | 84.1 | 53.6 | 98.8 | 104 | 99.7 | 70.9 | 62 | 98.3 | 96.2 | 87.9 | 50.5 | 53 | 103 | 100 | 97 | 69.4 | 76.6 | 100 | 96.9 | 81.2 | 42.4 | 49.9 | – | 0.14 |
| CNS(=O)(=O)Nc1nccc(Cc2c(C)c3ccc(Oc4ncccn4)cc3oc2=O)c1F | 0.0515 | – | 13.1 | 23.5 | 10.9 | 2.5 | 6.7 | 105 | 96 | 70.8 | 50.1 | 40.8 | 101 | 91.8 | 38.3 | 23.8 | 13.8 | 94.6 | 92.9 | 75.4 | 57 | 50.3 | 98.2 | 97.9 | 94.3 | 85.7 | 70.8 | 99.8 | 89.4 | 82.9 | 73.4 | 62.5 | 0.116 | – |
| O=C(Nc1ccc(S(=O)(=O)Nc2nccs2)cc1)C(c1ccccc1)c1ccccc1 | > 10 | – | – | 0 | – | – | 0 | – | – | – | – | – | 104 | 105 | 103 | 110 | 95.3 | – | – | – | – | – | – | – | – | – | – | 105 | 101 | 113 | 99 | 103 | – | > 10 |
| C#C[C@]1(OC(=O)CCCCCC)CC[C@H]2[C@@H]3CCC4=CC(=O)CC[C@@H]4[C@H]3CC[C@@]21C [norethisterone-enanthate] | 2.06 | > 10 | 3.2 | 6.4 | 0.6 | 1.6 | 2.8 | 100 | 104 | 90 | 94.1 | 57.1 | 95.9 | 95.7 | 96.9 | 88.8 | 19.2 | 96.6 | 97.1 | 98.8 | 94.5 | 84.2 | 98.5 | 100 | 100 | 98.8 | 68.1 | 99.9 | 102 | 99.8 | 95.8 | 58.5 | – | – |
| NCCNC(=O)c1ccc(Cl)cn1 [lazabemide] | > 10 | > 10 | – | 0 | 0 | – | 0 | – | – | – | – | – | 99.6 | 96.4 | 113 | 114 | 125 | 95.6 | 99.2 | 90.8 | 91 | 104 | – | – | – | – | – | 98.1 | 95.6 | 101 | 103 | 101 | – | > 10 |
| CCN(CC)CCOC(=O)C(c1ccccc1)c1ccccc1 [adiphenine] | > 10 | > 10 | 0 | 0 | 0 | – | 0 | 109 | 113 | 97 | 104 | 124 | 103 | 109 | 106 | 113 | 99.1 | 111 | 116 | 105 | 107 | 99.2 | – | – | – | – | – | 105 | 102 | 95.1 | 98.3 | 103 | > 10 | > 10 |
